Data reported in patent publication US20040116535A1, “Use” (priority 2001, published 2004).
Entries after “also recorded” stand apart in the source; their conditions may differ. Like-named read-outs stand apart in the source and are kept apart here.

Columns and labels:
allodynia = test: Different allodynia model, i.v. injected mex enantiomers (Nordmark and Schött, unpublished observations); type: in vivo; settings: 25 mg/kg i.v.
[1] = system: allodynia from rat nerve root ligation; settings: cited from earlier work
tinnitus [2] = settings: no statistically significant difference to placebo (35%); cited from earlier work
GABA = settings: cited from earlier work
tinnitus [3] = settings: tocainide infusion; placebo infusion 5%; cited from earlier work
tinnitus [4] = settings: difference to placebo (30%) not significant; cited from earlier work
[5] = cited from earlier work
tinnitus [6] = settings: 300 mg mex per day orally for one or two weeks; cited from earlier work
tinnitus [7] = system: tinnitus
tinnitus [8] = settings: 32 patients; 200 mg 3 times daily for 30 days; cited from earlier work
inferior colliculus = settings: activity believed to be representative of tinnitus; cited from earlier work

**Q.** With `Cc1cccc(C)c1OC[C@H](C)N` [(S+)-mex] as the compound, how does the side effects (allodynia) read?
**A.** The side effects was “so severe that pain measurements were not possible”.

**Q.** For `Cc1cccc(C)c1OC[C@@H](C)N` [(R−)-mex], which “pain relief (allodynia) compared between the mex enantiomers” value [1] is on record?
**A.** The value was “considerably greater”.

**Q.** Which “positive results for the drug” value (tinnitus [2]) does the source give for `NC(=O)N1c2ccccc2C=Cc2ccccc21` [carbamazepine] here?
**A.** Its value is 45%.

**Q.** With `Cc1cccc(C)c1NC(=O)C(C)N` (stereo not drawn) [tocainide] as the compound, how does the “effect on GABA” value (GABA) read?
**A.** The value was “stimulating effect”.

**Q.** What about the “reduction in tinnitus intensity” value (tinnitus [3]) of the same compound?
**A.** The value was 50%.

**Q.** For `CNCCC=C1c2ccccc2CCc2ccccc21` [nortriptyline], which “reduction of tinnitus sensation” value (tinnitus [4]) is on record?
**A.** Its value is 43%.

**Q.** What does the source list for “1-(2,6-dimethylphenoxy)-propanamine [mexiletine]”?
**A.** difference between peak and trough ([5]; after administration every 8 hours): more than 30%; half-life ([5]; human, in vivo): about 8 hours; patients showing no effect (tinnitus [6]): 65%; subjects showing an effect above 50% (tinnitus [6]): 14.6%; tinnitus intensity reduction (VAS) (tinnitus [7]; Case 1, 500 mg mexiletine infused over 120 min, after 118 min): 95%; time after which tinnitus returned to normal (tinnitus [7]; Case 2, 500 mg mexiletine): 1 h; level to which tinnitus was reduced (tinnitus [7]; Case 2, 500 mg mexiletine, shortly before the infusion stopped): 60%; time after which tinnitus returned to base level (tinnitus [7]; Case 2, 550 mg mexiletine over 90 min): 100 min; tinnitus (VAS) (tinnitus [7]; Case 2, 550 mg mexiletine over 90 min, after 60 min): completely vanished; increase in tinnitus intensity (tinnitus [7]; Case 2, 550 mg mexiletine over 90 min, after 214 min): about 40%; reduction in tinnitus intensity (tinnitus [7]; Case 3, mexiletine): small reductions; also recorded: moderate; side effects (tinnitus [7]; human, in vivo): no side effects; effect on GABA (GABA): stimulating effect; effect on tinnitus compared with placebo (tinnitus [8]): not superior to placebo

**Q.** What does the source list for `CCN(CC)CC(=O)Nc1c(C)cccc1C` [lidocaine]?
**A.** side effects (tinnitus [7]; Case 1, 100 mg lidocaine i.v.): no side effects; tinnitus intensity reduction (VAS) (tinnitus [7]; Case 1, 100 mg lidocaine i.v. over 5 min, 70 min after the start): 96%; time after which tinnitus returned to the initial level (tinnitus [7]; Case 2, lidocaine i.v.): about 2 min; tinnitus (VAS) (tinnitus [7]; Case 2, lidocaine i.v., 30 s after injection): no tinnitus; tinnitus increase above the base level (tinnitus [7]; Case 2, lidocaine i.v., at 30 min): 46%; tinnitus (VAS) (tinnitus [7]; Case 2, lidocaine i.v., less than one min after the start of the injection): vanished completely; reduction in tinnitus intensity (tinnitus [7]; Case 3, lidocaine): small reductions; also recorded: moderate; side effects (tinnitus [7]; Case 3, lidocaine): no side effects; effect on GABA (GABA): stimulating effect; increased spontaneous activity in the inferior colliculus (inferior colliculus): abolished
